Results from US7763602B2, “Pyrrole derivatives as antimycobacterial compounds” (priority 2002, dated 2010).
In brackets after ≈: the same amount, converted by molar mass.

Columns and labels:
Type in all cases: cell-based, Mycobacterium tuberculosis
[1] = system: M. tuberculosis clinical isolates, sensitive; test: microbe, parasite or virus in culture; details: for MIC (μg/ml) against Clinical isolates Sensitive: Table I, agar dilution; for MIC: Mycobacterium tuberculosis, read-out: MIC (μg/ml) against Clinical isolates Sensitive
[2] = system: M. tuberculosis 27294; test: In vitro agar dilution assay (MIC), reference strain; details: for MIC (μg/ml) against M. tuberculosis-27294: Table I; for MIC: Mycobacterium tuberculosis, 27294, Table I, read-out: MIC (μg/ml) against M. tuberculosis-27294
[3] = system: M. tuberculosis H37Rv ATCC 27294; test: In vitro growth inhibition assay, BACTEC 460 TB system; design: key: +: If ΔGI of test vial is less than that of the control vial the culture was sensitive to the test compound; details: final concentration 6.25 μg/ml

Compound | MIC (μg/ml) against Clinical isolates Sensitive [1] | MIC (μg/ml) against M. tuberculosis-27294 [2] | Growth inhibition of M. tuberculosis 27294 [3] | MIC [1] | MIC [2]
Cc1c(CN2CCN(c3ccccn3)CC2)cc(-c2ccccc2)n1NC(=O)c1cnccn1 [compound 28, N-(3-{[4-(2-pyridyl)piperazinyl]methyl}-2-methyl-5-phenylpyrrolyl)pyrazin-2-ylcarboxamide] | 1.0 to 4.0 µg/mL | 2.0 µg/mL (≈ 4.41 µM) | – | – | –
Cc1c(CN2CCN(c3cccc(C(F)(F)F)c3)CC2)cc(-c2ccc(Cl)cc2)n1NC(=O)c1cnccn1 [compound 39, N-(5-(4-chlorophenyl)-3-{[4-(3-trifluoromethylphenyl)piperazinyl]methyl}-2-methylpyrrolyl)pyrazin-2-ylcarboxamide] | 4.0 to 8.0 µg/mL | 4.0 µg/mL (≈ 7.21 µM) | + | – | –
Cc1c(CN2CCN(Cc3ccccc3)CC2)cc(-c2ccccc2)n1NC(=O)c1ccncc1 [compound 15, N-(2-methyl-5-phenyl-3-{[4-benzylpiperazinyl]methyl}pyrrolyl)-4-pyridylcarboxamide] | 0.5 to 1.0 µg/mL | 0.5 µg/mL (≈ 1.07 µM) | + | – | –
Cc1c(CN2CCN(c3ccc(F)cc3)CC2)cc(-c2ccc(Cl)cc2)n1NC(=O)c1cnccn1 [compound 37, N-(5-(4-chlorophenyl)-3-{[4-(4-fluorophenyl)piperazinyl]methyl}-2-methylpyrrolyl)pyrazin-2-ylcarboxamide] | 8 to 16.0 µg/mL | 16.0 µg/mL (≈ 31.7 µM) | – | – | –
Cc1c(CN2CCN(C(=O)c3ccco3)CC2)cc(-c2ccc(Cl)cc2)n1-c1ccc(Cl)cc1 [compound 7, 4-{[1,5-bis(4-chlorophenyl)-2-methylpyrrol-3-yl]methyl}piperazinyl-2-furyl-ketone] | 1.0 to 4.0 µg/mL | 4.0 µg/mL (≈ 8.09 µM) | + | – | –
Cc1c(CN2CCN(C)CC2)cc(-c2ccccc2)n1NC(=O)c1ccncc1 [compound 16, N-{2-methyl-3-[(4-methylpiperazinyl)methyl]-5-phenylpyrrolyl}-4-pyridylcarboxamide] | 2.0 to 4.0 µg/mL | 2.0 µg/mL (≈ 5.13 µM) | + | – | –
COc1ccccc1N1CCN(Cc2cc(-c3ccccc3)n(NC(=O)c3ccncc3)c2C)CC1 [compound 13, N-(3-{[4-(2-methoxyphenyl)piperazinyl]methyl}-2-methyl-5-phenylpyrrolyl)-4-pyridylcarboxamide] | 0.5 to 2.0 µg/mL | 0.5 µg/mL (≈ 1.04 µM) | + | – | –
Cc1cc(CN2CCN(C(c3ccccc3)c3ccccc3)CC2)c(-c2ccccc2)n1NC(=O)c1cnccn1 [compound 36, N-(3-{[4-(diphenylmethyl)piperazinyl]methyl}-5-methyl-2-phenylpyrrolyl) pyrazin-2-ylcarboxamide] | 0.5 to 1.0 µg/mL | 0.5 µg/mL (≈ 0.921 µM) | + | – | –
CCC(CO)n1c(C)c(CN2CCSCC2)c(CO)c1-c1ccccc1 (stereo not drawn) [compound 90, 2-[3-(hydroxymethyl)-5-methyl-2-phenyl-4-(1,4-thiazaperhydroin-4-ylmethyl)-pyrrolyl]butan-1-ol] | >16.0 µg/mL | >16.0 µg/mL | – | – | –
COc1ccccc1N1CCN(Cc2cc(-c3ccc(Cl)cc3)n(NC(=O)c3cnccn3)c2C)CC1 [compound 38, N-(5-(4-chlorophenyl)-3-{[4-(2-methoxyphenyl)piperazinyl]methyl}-2-methylpyrrolyl)pyrazin-2-ylcarboxamide] | >16.0 µg/mL | >16.0 µg/mL | – | – | –
Cc1c(CN2CCN(c3cccc(C(F)(F)F)c3)CC2)cc(-c2ccc(Cl)cc2)n1-c1cccc2ccccc12 [compound 60, 1-{[5-(4-chlorophenyl)-2-methyl-1-naphthylpyrrol-3-yl]methyl}-4-(3-trifluoromethylphenyl)piperazine] | 2.0 to 8.0 µg/mL | 4.0 µg/mL (≈ 7.14 µM) | + | – | –
Cc1cc(CN2CCN(c3cccc(C(F)(F)F)c3)CC2)c(-c2ccc(Cl)cc2)n1NC(=O)c1cnccn1 [compound 43, N-(2-(4-chlorophenyl)-3-{[4-(3-trifluoromethylphenyl)piperazinyl]methyl}-5-methylpyrrolyl)pyrazin-2-ylcarboxamide] | >16.0 µg/mL | >16.0 µg/mL | – | – | –
COc1ccccc1N1CCN(Cc2cc(-c3ccc(Cl)cc3)n(-c3cccc4ccccc34)c2C)CC1 [compound 59, 1-{[5-(4-chlorophenyl)-2-methyl-1-naphthylpyrrol-3-yl]methyl}-4-(2-methoxyphenyl)piperazine] | >16.0 µg/mL | >16.0 µg/mL | – | – | –
Cc1cc(CN2CCN(Cc3ccc4c(c3)OCO4)CC2)c(-c2ccccc2)n1NC(=O)c1ccncc1 [compound 24, N-(3-{[4-(2H-benzo[d]1,3-dioxolan-5-ylmethyl)piperazinyl]methyl}-5-methyl-2-phenylpyrrolyl)-4-pyridylcarboxamide] | – | 8.0 µg/mL (≈ 15.7 µM) | + | – | –
Cc1c(CN2CCN(c3cccc(C(F)(F)F)c3)CC2)cc(-c2ccccc2)n1NC(=O)c1cnccn1 [compound 27, N-(3-{[4-(3-trifluoromethylphenyl)piperazinyl]methyl}-2-methyl-5-phenylpyrrolyl)pyrazin-2-ylcarboxamide] | 1.0 to 4.0 µg/mL | 2.0 µg/mL (≈ 3.84 µM) | + | – | –
Cc1c(CN2CCN(c3ccccn3)CC2)cc(-c2ccccc2)n1NC(=O)c1ccncc1 [compound 14, N-(3-{[4-(2-pyridyl)piperazinyl]methyl}-2-methyl-5-phenylpyrrolyl)-4-pyridylcarboxamide] | 4.0 to 8.0 µg/mL | 4.0 µg/mL (≈ 8.84 µM) | + | – | –
Cc1cc(CN2CCN(c3ccc(F)cc3)CC2)c(-c2ccccc2)n1-c1ccc(F)cc1F [compound 55, 1-{[1-(2,4-difluorophenyl)-5-methyl-2-phenylpyrrol-3-yl]methyl}-4-(4-fluorophenyl) piperazine] | – | – | – | > 16 µg/mL | > 16 µg/mL
Cc1c(CN2CCCC2)cc(-c2ccccc2)n1NC(=O)c1ccncc1 [compound 19, N-[2-methyl-5-phenyl-3-(pyrrolidinylmethyl)pyrrolyl]-4-pyridylcarboxamide] | – | 16.0 µg/mL (≈ 44.4 µM) | – | – | –
Cc1cc(CN2CCN(c3cccc(C(F)(F)F)c3)CC2)c(-c2ccccc2)n1-c1ccc(F)cc1F [compound 57, 1-{[1-(2,4-difluorophenyl)-5-methyl-2-phenylpyrrol-3-yl]methyl}-4-(3-trifluoromethylphenyl)piperazine] | – | – | + | > 16 µg/mL | > 16 µg/mL
Cc1c(CN2CCN(c3ccc(F)cc3)CC2)cc(-c2ccccc2)n1-c1ccc(F)cc1F [compound 51, 1-{[1-(2,4-difluorophenyl)-2-methyl-5-phenylpyrrol-3-yl]methyl}-4-(4-fluorophenyl)piperazine] | – | – | – | > 16 µg/mL | > 16 µg/mL
Cc1c(CN2CC[S+]([O-])CC2)cc(-c2ccccc2)n1-c1ccccc1 [compound 87, 4-[(2-methyl-1,5-diphenylpyrrol-3-yl)methyl]1,4-thiazaperhydroin-1-one] | 8.0 to 16.0 µg/mL | 8.0 µg/mL (≈ 21.9 µM) | + | – | –
CO[C@H]1/C=C/O[C@@]2(C)Oc3c(C)c(O)c4c(O)c(c(/C=N/N5CCN(C)CC5)c(O)c4c3C2=O)NC(=O)/C(C)=C\C=C\[C@H](C)[C@H](O)[C@@H](C)[C@@H](O)[C@@H](C)[C@H](OC(C)=O)[C@@H]1C [Rifampicin, reference compound] | – | – | + | 0.25 µg/mL (≈ 0.304 µM) | 0.25 µg/mL (≈ 0.304 µM)
Cc1c(CN2CCN(c3ccc(F)cc3)CC2)cc(-c2ccc(Cl)cc2)n1-c1ccc(F)cc1F [compound 44, 1-{[1-(2,4-difluorophenyl)-5-(4-chlorophenyl)-2-methylpyrrol-3-yl]methyl}-4-(4-fluorophenyl)piperazine] | – | – | + | 1 to 2 µg/mL (≈ 2.02 to 4.03 µM) | 1 µg/mL (≈ 2.02 µM)
Cc1c(CN2CCN(c3cccc(C(F)(F)F)c3)CC2)cc(-c2ccccc2)n1-c1ccc(F)cc1F [compound 53, 1-{[1-(2,4-difluorophenyl)-2-methyl-5-phenylpyrrol-3-yl]methyl}-4-(3-trifluoromethylphenyl)piperazine] | – | – | – | > 16 µg/mL | > 16 µg/mL
Cc1cc(CN2CCN(c3cccc(C(F)(F)F)c3)CC2)c(-c2ccc(Cl)cc2)n1-c1cccc2ccccc12 [compound 64, 1-{[2-(4-chlorophenyl)-5-methyl-1-naphthylpyrrol-3-yl]methyl}-4-(3-trifluoromethylphenyl)piperazine] | >16.0 µg/mL | >16.0 µg/mL | – | – | –
Cc1cc(CN2CCN(c3ccc(F)cc3)CC2)c(-c2ccc(Cl)cc2)n1NC(=O)c1cnccn1 [compound 41, N-(2-(4-chlorophenyl)-3-{[4-(4-fluorophenyl)piperazinyl]methyl}-5-methylpyrrolyl)pyrazin-2-ylcarboxamide] | >16.0 µg/mL | >16.0 µg/mL | – | – | –
COc1ccccc1N1CCN(Cc2cc(C)n(NC(=O)c3cnccn3)c2-c2ccccc2)CC1 [compound 32, N-(3-{[4-(2-methoxyphenyl)piperazinyl]methyl}-5-methyl-2-phenylpyrrolyl) pyrazin-2-ylcarboxamide] | >16.0 µg/mL | >16.0 µg/mL | – | – | –
